Activity calls are given as the source filed them. The rule behind the calls is not given here.
Legend:
A549 [1] = experiment: Induction of apoptosis in human A549 cells assessed as necrotic cells at 1 uM by annexin V-PI based flow cytometric analysis (reference value: 1.6%); format: functional
NCI-H1792 = experiment: Downregulation of XIAP protein expression level in human NCI-H1792 cells at 1 uM for 24 hrs by […] analysis; format: functional, cell-based
A549 [2] = experiment: Induction of apoptosis in human A549 cells assessed as late apoptotic cells at 0.5 uM for 24 hrs by annexin V-PI staining based flow cytometric analysis (reference value: 2.3%); format: functional
NCI-H2030 [3] = experiment: Induction of TRAIL dependent apoptosis in human NCI-H2030 cells by annexin V-PI staining based flow cytometric analysis; format: functional, cell-based
NCI-H1373 [4] = experiment: Induction of cell cycle arrest in human NCI-H1373 cells assessed as accumulation of cells at S phase at 1 uM for 24 hrs by DAPI staining analysis (reference value: 40%); format: functional
NCI-H23 [5] = experiment: Downregulation of c-MYC mRNA expression level in human NCI-H23 cells at 0.1 to 1 uM for 24 hrs by qRT-PCR analysis; format: functional, cell-based; conditions: dose 0.1-1 µM
DV-90 [6] = experiment: Downregulation of c-MYC protein expression level in human DV-90 cells at 1 uM for 24 hrs by […] analysis; format: functional, cell-based
NCI-H2030 [7] = experiment: Downregulation of c-MYC protein expression level in human NCI-H2030 cells at 1 uM for 24 hrs by […] analysis; format: functional, cell-based
NCI-H2347 [8] = experiment: Downregulation of FLIP mRNA expression level in human NCI-H2347 cells at 0.1 to 1 uM for 24 hrs by qRT-PCR analysis; format: functional, cell-based; conditions: dose 0.1-1 µM
NCI-H1373 [9] = experiment: Antitumor activity against human NCI-H1373 cells xenografted in SCID mouse assessed as tumor weight ratio to control at 50 mg/kg, ip measured on after 15 days relative to control; format: functional; conditions: time 15 day
NCI-H2347 [10] = experiment: Downregulation of XIAP protein expression level in human NCI-H2347 cells at 1 uM for 24 hrs by […] analysis; format: functional, cell-based
NCI-H1373 [11] = experiment: Induction of apoptosis in human NCI-H1373 cells assessed as viable cells at 0.5 uM for 24 hrs by annexin V-PI staining based flow cytometric analysis (reference value: 77.7%); format: functional; conditions: read-out: Activity
A549 [12] = experiment: Induction of apoptosis in human A549 cells assessed as necrotic cells at 2.5 uM for 24 hrs by annexin V-PI staining based flow cytometric analysis (reference value: 1.3%); format: functional
NCI-H460 [13] = experiment: Induction of apoptosis in human NCI-H460 cells assessed as late apoptotic cells at 2.5 uM for 24 hrs by annexin V-PI staining based flow cytometric analysis (reference value: 3.0%); format: functional
A549 [14] = experiment: Downregulation of c-MYC mRNA expression level in human A549 cells at 0.1 to 1 uM for 24 hrs by qRT-PCR analysis; format: functional, cell-based; conditions: dose 0.1-1 µM
A549 [15] = experiment: Antiproliferative activity against human A549 cells at 500 to 2500 nM in presence of TNF by cell titre glo assay; format: functional, cell-based; conditions: dose 500-2500 nM
LCLC-97TM1 = experiment: Downregulation of c-MYC protein expression level in human LCLC-97TM1 cells at 1 uM for 24 hrs by […] analysis; format: functional, cell-based
NCI-H358 [16] = experiment: Downregulation of XIAP mRNA expression level in human NCI-H358 cells at 0.1 to 1 uM for 24 hrs by qRT-PCR analysis; format: functional, cell-based; conditions: dose 0.1-1 µM
A549 [17] = experiment: Induction of apoptosis in human A549 cells assessed as late apoptotic cells at 2.5 uM for 24 hrs by annexin V-PI staining based flow cytometric analysis (reference value: 2.3%); format: functional
DV-90 [18] = experiment: Induction of apoptosis in human DV-90 cells assessed as late apoptotic cells at 2.5 uM for 24 hrs by annexin V-PI staining based flow cytometric analysis (reference value: 11.4%); format: functional
NCI-H460 [19] = experiment: Downregulation of c-MYC protein expression level in human NCI-H460 cells at 1 uM for 24 hrs by […] analysis; format: functional, cell-based
NCI-H358 [20] = experiment: Downregulation of c-MYC protein expression level in human NCI-H358 cells at 1 uM for 24 hrs by […] analysis; format: functional, cell-based
DV-90 [21] = experiment: Induction of apoptosis in human DV-90 cells assessed as late apoptotic cells at 0.5 uM for 24 hrs by annexin V-PI staining based flow cytometric analysis (reference value: 11.4%); format: functional
NCI-H2030 [22] = experiment: Downregulation of XIAP protein expression level in human NCI-H2030 cells at 1 uM for 24 hrs by […] analysis; format: functional, cell-based
NCI-H1373 [23] = experiment: Downregulation of c-MYC protein expression level in human NCI-H1373 cells at 1 uM for 24 hrs by […] analysis; format: functional, cell-based
NCI-H358 [24] = experiment: Downregulation of c-MYC mRNA expression level in human NCI-H358 cells at 0.1 to 1 uM for 24 hrs by qRT-PCR analysis; format: functional, cell-based; conditions: dose 0.1-1 µM
NCI-H1373 [25] = experiment: Induction of TRAIL dependent apoptosis in human NCI-H1373 cells assessed as necrotic cells at 1 uM by annexin V-PI staining based flow cytometric analysis (reference value: 3.6%); format: functional
NCI-H358 [26] = experiment: Downregulation of XIAP protein expression level in human NCI-H358 cells at 1 uM for 24 hrs by […] analysis; format: functional, cell-based
A549 [27] = experiment: Induction of cell cycle arrest in human A549 cells assessed as accumulation of cells at S phase at 0.1 uM for 24 hrs by Click-iT EdU Alexa Fluor 647 flow cytometric assay kit analysis (reference value: 35%); format: functional
NCI-H23 [28] = experiment: Downregulation of c-MYC protein expression level in human NCI-H23 cells at 1 uM for 24 hrs by […] analysis; format: functional, cell-based
A549 [29] = experiment: Downregulation of c-MYC protein level in human A549 cells at 100 to 5000 nM upto 24 hrs by Western blot analysis; format: functional, cell-based; conditions: dose 100-5000 nM
A549 [30] = experiment: Induction of apoptosis in human A549 cells assessed as early apoptotic cells at 2.5 uM for 24 hrs by annexin V-PI staining based flow cytometric analysis (reference value: 0.2%); format: functional
DV-90 [31] = experiment: Induction of cell cycle arrest in human DV-90 cells assessed as accumulation of cells at G2/M phase at 0.5 uM for 24 hrs by Click-iT EdU Alexa Fluor 647 flow cytometric assay kit analysis (reference value: 21%); format: functional
DV-90 [32] = experiment: Induction of apoptosis in human DV-90 cells assessed as late apoptotic cells at 2.5 uM for 24 hrs by annexin V-PI staining based flow cytometric analysis (reference value: 8.7%); format: functional
DV-90 [33] = experiment: Induction of cell cycle arrest in human DV-90 cells assessed as accumulation of cells at S phase at 0.5 uM for 24 hrs by Click-iT EdU Alexa Fluor 647 flow cytometric assay kit analysis (reference value: 30%); format: functional
NCI-H460 [34] = experiment: Induction of cell cycle arrest in human NCI-H460 cells assessed as accumulation of cells at G0/G1 phase at 0.25 uM for 24 hrs by Click-iT EdU Alexa Fluor 647 flow cytometric assay kit analysis (reference value: 45%); format: functional

`Cc1sc2c(c1C)C(c1ccc(Cl)cc1)=N[C@@H](CC(=O)OC(C)(C)C)c1nnc(C)n1-2` was tested, and the Activity (A549 [1]) was 0.6%, the Activity (NCI-H1792) was “Active” and the Activity (A549 [2]) was 1.5%. For the same molecule, the Activity (NCI-H2030 [3]) was “Active”, the Activity (NCI-H1373 [4]) was 7% and the Activity (NCI-H23 [5]) was “Active”. For the same molecule, the Activity (DV-90 [6]) was “Active”, the Activity (NCI-H2030 [7]) was “Active” and the Activity (NCI-H2347 [8]) was “Active”. For the same molecule, the T/C (NCI-H1373 [9]) was 32%, the Activity (NCI-H2347 [10]) was “Active” and the viability at 0.5 µM (NCI-H1373 [11]) was 64.3%. For the same molecule, the Activity (A549 [12]) was 0.9%, the Activity (NCI-H460 [13]) was 5.5% and the Activity (A549 [14]) was “Active”. For the same molecule, the Activity (A549 [15]) was “Active”, the Activity (LCLC-97TM1) was “Active” and the Activity (NCI-H358 [16]) was “Active”. The Activity (A549 [17]) was 1.8%, the Activity (DV-90 [18]) was 16% and the Activity (NCI-H460 [19]) was “Active”. The Activity (NCI-H358 [20]) was “Active”, the Activity (DV-90 [21]) was 10.7% and the Activity (NCI-H2030 [22]) was “Active”. For the same molecule, the Activity (NCI-H1373 [23]) was “Active”, the Activity (NCI-H358 [24]) was “Active” and the Activity (NCI-H1373 [25]) was 19.1%. For the same molecule, the Activity (NCI-H358 [26]) was “Active”, the Activity (A549 [27]) was 36% and the Activity (NCI-H23 [28]) was “Active”. The Activity (A549 [29]) was “inactive”.
Molecule `Cc1sc2c(c1C)C(c1ccc(Cl)cc1)=N[C@@H](CC(=O)Nc1ccc(O)cc1)c1nnc(C)n1-2` [BIRABRESIB] has an Activity (A549 [30]) of 0.1%, an Activity (DV-90 [31]) of 25% and an Activity (DV-90 [32]) of 13.5%.
Molecule `CCNC(=O)C[C@@H]1N=C(c2ccc(Cl)cc2)c2cc(OC)ccc2-n2c(C)nnc21` [MOLIBRESIB] has an Activity (DV-90 [33]) of 25% and an Activity (NCI-H460 [34]) of 43%.

— ChEMBL document CHEMBL5712891, “Inhibition of BET bromodomain-dependent XIAP and FLIP expression sensitizes KRAS-mutated NSCLC to pro-apoptotic agents” (Cell Death Dis, 2016)
